Source: ChEMBL document CHEMBL3044954, “Insecticide Resistance and Insensitive Acetylcholinesterase in Small Brown Planthopper, Laodelphax striatellus” (J Pestic Sci, 2000)

Experiments:
Laodelphax striatellus [1] = assay: Insecticidal activity against Laodelphax striatella Ibaraki (small brown planthopper) assessed as mortality compound treated topically on dorsal side; conditions: topical
Laodelphax striatellus [2] = assay: Insecticidal activity against Laodelphax striatella Kumamoto (small brown planthopper) assessed as mortality compound treated topically on dorsal side; conditions: topical
Laodelphax striatellus [3] = assay: Insecticidal activity against susceptible Laodelphax striatella (small brown planthopper) assessed as mortality compound treated topically on dorsal side; type: functional; conditions: topical
Laodelphax striatellus [4] = assay: Ratio of LD50 for Laodelphax striatella Ibaraki (small brown planthopper) to LD50 for susceptible Laodelphax striatella; type: functional
Laodelphax striatellus [5] = assay: Ratio of LD50 for Laodelphax striatella Kumamoto (small brown planthopper) to LD50 for susceptible Laodelphax striatella; type: functional
[6] = target: Acetylcholinesterase (Laodelphax striatella) (UniProt K4JQ36); assay: Ratio of I50 of acetylcholinesterase in Laodelphax striatella Ibaraki (small brown planthopper) homogenate to I50 for acetylcholinesterase in susceptible Laodelphax striatella homogenate; conditions: Laodelphax striatellus
Acetylcholinesterase (Laodelphax striatella), sequence (K4JQ36 1-426): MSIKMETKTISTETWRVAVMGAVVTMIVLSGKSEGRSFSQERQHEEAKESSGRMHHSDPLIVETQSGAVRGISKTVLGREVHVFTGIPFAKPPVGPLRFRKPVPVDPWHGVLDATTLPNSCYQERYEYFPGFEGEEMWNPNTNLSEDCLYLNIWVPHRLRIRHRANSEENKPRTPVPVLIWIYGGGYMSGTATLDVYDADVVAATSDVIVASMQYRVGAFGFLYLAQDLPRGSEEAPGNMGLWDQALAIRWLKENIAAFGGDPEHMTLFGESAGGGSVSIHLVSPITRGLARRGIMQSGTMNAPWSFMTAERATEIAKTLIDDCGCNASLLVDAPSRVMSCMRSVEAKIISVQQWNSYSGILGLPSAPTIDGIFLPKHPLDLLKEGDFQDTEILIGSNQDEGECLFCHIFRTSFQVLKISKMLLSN

[7] = target: Acetylcholinesterase (Laodelphax striatella) (UniProt K4JQ36); assay: Ratio of I50 of acetylcholinesterase in Laodelphax striatella Kumamoto (small brown planthopper) homogenate to I50 for acetylcholinesterase in susceptible Laodelphax striatella homogenate; conditions: Laodelphax striatellus
Acetylcholinesterase [8] = target: T1, Acetylcholinesterase (Laodelphax striatella, UniProt K4JQ36); assay: Inhibition of acetylcholinesterase in Laodelphax striatella Ibaraki (small brown planthopper) homogenate preincubated for 10 min before substrate addition measured after 10 min by Ellman method; parameters: species or system Laodelphax striatellus; conditions: read-out: I50
T1 sequence (K4JQ36 whole entry): as the sequence (K4JQ36 1-426) above

Acetylcholinesterase [9] = target: T1, Acetylcholinesterase; assay: Inhibition of acetylcholinesterase in Laodelphax striatella Kumamoto (small brown planthopper) homogenate preincubated for 10 min before substrate addition measured after 10 min by Ellman method; parameters: species or system Laodelphax striatellus; conditions: read-out: I50
Acetylcholinesterase [10] = target: T1, Acetylcholinesterase; assay: Inhibition of acetylcholinesterase in susceptible Laodelphax striatella (small brown planthopper) homogenate preincubated for 10 min before substrate addition measured after 10 min by Ellman method; parameters: species or system Laodelphax striatellus; conditions: read-out: I50
[11] = target: T2, Carboxylesterase (Laodelphax striatella) (UniProt K4JRP7); assay: Activity of aliesterase in Laodelphax striatella Ibaraki (small brown planthopper) homogenate assessed per 10 min per ug protein after 10 min by van Asperen method; conditions: Laodelphax striatellus
T2 sequence (whole entry): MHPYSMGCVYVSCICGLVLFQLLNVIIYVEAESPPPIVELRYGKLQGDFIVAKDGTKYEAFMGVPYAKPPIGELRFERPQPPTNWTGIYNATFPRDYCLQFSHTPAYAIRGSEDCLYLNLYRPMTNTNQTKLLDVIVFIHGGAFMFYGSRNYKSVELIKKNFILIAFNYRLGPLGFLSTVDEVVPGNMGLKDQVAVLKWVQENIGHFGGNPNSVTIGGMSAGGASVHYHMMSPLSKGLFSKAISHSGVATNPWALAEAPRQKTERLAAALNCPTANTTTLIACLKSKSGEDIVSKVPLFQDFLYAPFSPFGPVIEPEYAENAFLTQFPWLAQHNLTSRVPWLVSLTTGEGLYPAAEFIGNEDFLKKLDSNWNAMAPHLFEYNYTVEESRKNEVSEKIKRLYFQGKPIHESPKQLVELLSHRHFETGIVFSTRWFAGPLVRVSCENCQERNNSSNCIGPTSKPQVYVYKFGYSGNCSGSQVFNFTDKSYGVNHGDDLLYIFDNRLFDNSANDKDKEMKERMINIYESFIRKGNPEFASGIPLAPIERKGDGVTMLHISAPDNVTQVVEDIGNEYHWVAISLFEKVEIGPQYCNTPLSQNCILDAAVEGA

[12] = target: T2, Carboxylesterase (Laodelphax striatella); assay: Activity of aliesterase in Laodelphax striatella Kumamoto (small brown planthopper) homogenate assessed per 10 min per ug protein after 10 min by van Asperen method; conditions: Laodelphax striatellus
[13] = target: T2, Carboxylesterase (Laodelphax striatella); assay: Activity of aliesterase in susceptible Laodelphax striatella (small brown planthopper) homogenate assessed per 10 min per ug protein after 10 min by van Asperen method; conditions: Laodelphax striatellus
[14] = target: T2, Carboxylesterase (Laodelphax striatella); assay: Ratio of activity of aliesterase in Laodelphax striatella Ibaraki (small brown planthopper) homogenate to activity of aliesterase in susceptible Laodelphax striatella homogenate; conditions: Laodelphax striatellus
[15] = target: T2, Carboxylesterase (Laodelphax striatella); assay: Ratio of activity of aliesterase in Laodelphax striatella Kumamoto (small brown planthopper) homogenate to activity of aliesterase in susceptible Laodelphax striatella homogenate; conditions: Laodelphax striatellus

Which LD50 (Laodelphax striatellus [1]) does the source give for `CCOC(=O)CC(SP(=S)(OC)OC)C(=O)OCC` (centres undefined) [MALATHION] here?
Its LD50 is 130 mg/kg.

And the LD50 (Laodelphax striatellus [2])?
Its LD50 is 380 mg/kg.

And the LD50 (Laodelphax striatellus [3])?
Its LD50 is 22 mg/kg.

What about the Ratio (Laodelphax striatellus [4]) of the same molecule?
Its Ratio is 5.9.

What about the Ratio (Laodelphax striatellus [5]) of the same molecule?
Its Ratio is 17.

Which LD50 (Laodelphax striatellus [1]) does the source give for `CCC(C)c1ccccc1OC(=O)NC` (centres undefined) [FENOBUCARB] here?
The LD50 was 33 mg/kg.

And the LD50 (Laodelphax striatellus [2])?
Its LD50 is 320 mg/kg.

What about the LD50 (Laodelphax striatellus [3]) of the same molecule?
Its LD50 is 18 mg/kg.

What about the Ratio [6] of the same molecule?
The Ratio was 0.9.

What about the Ratio [7] of the same molecule?
The Ratio was 4.8.

And the Ratio (Laodelphax striatellus [4])?
Its Ratio is 1.8.

What about the Ratio (Laodelphax striatellus [5]) of the same molecule?
The Ratio was 18.

What about the IC50 (Acetylcholinesterase [8]) of the same molecule?
The IC50 was 26 nM.

And the IC50 (Acetylcholinesterase [9])?
Its IC50 is 140 nM.

What about the IC50 (Acetylcholinesterase [10]) of the same molecule?
The IC50 was 29 nM.

Which results are given for `O=[N+]([O-])/N=C1\NCCN1Cc1ccc(Cl)nc1` [IMIDACLOPRID]?
LD50 (Laodelphax striatellus [1]): 0.26 mg/kg; LD50 (Laodelphax striatellus [2]): 0.61 mg/kg; LD50 (Laodelphax striatellus [3]): 0.26 mg/kg; Ratio (Laodelphax striatellus [4]): 1; Ratio (Laodelphax striatellus [5]): 2.3

What does the source list for `CNC(=O)Oc1cccc2c1OC(C)(C)C2` [CARBOFURAN]?
LD50 (Laodelphax striatellus [1]): 1.7 mg/kg; LD50 (Laodelphax striatellus [2]): 20 mg/kg; LD50 (Laodelphax striatellus [3]): 0.51 mg/kg; Ratio (Laodelphax striatellus [4]): 3.3; Ratio (Laodelphax striatellus [5]): 39

Which results are given for `CCOP(=S)(OCC)Oc1cc(C)nc(C(C)C)n1` [DIMPYLATE]?
LD50 (Laodelphax striatellus [1]): 28 mg/kg; LD50 (Laodelphax striatellus [2]): 74 mg/kg; LD50 (Laodelphax striatellus [3]): 8.5 mg/kg; Ratio (Laodelphax striatellus [4]): 3.3; Ratio (Laodelphax striatellus [5]): 8.7

`CCCCN(CCCC)SN(C)C(=O)Oc1cccc2c1OC(C)(C)C2` [CARBOSULFAN] was tested. Which LD50 (Laodelphax striatellus [2]) did it give?
The LD50 was 42 mg/kg.

And the LD50 (Laodelphax striatellus [3])?
Its LD50 is 2.2 mg/kg.

What about the Ratio (Laodelphax striatellus [5]) of the same molecule?
Its Ratio is 19.

What does the source list for `CC(C)C(C(=O)OC(C#N)c1cccc(Oc2ccccc2)c1)c1ccc(Cl)cc1` (centres undefined) [FENVALERATE]?
LD50 (Laodelphax striatellus [1]): 1.9 mg/kg; LD50 (Laodelphax striatellus [3]): 1.4 mg/kg; Ratio (Laodelphax striatellus [4]): 1.4

Which LD50 (Laodelphax striatellus [1]) does the source give for `CCOc1ccc(C(C)(C)COCc2cccc(Oc3ccccc3)c2)cc1` [ETOFENPROX] here?
Its LD50 is 1.7 mg/kg.

And the LD50 (Laodelphax striatellus [2])?
The LD50 was 2.7 mg/kg.

What about the LD50 (Laodelphax striatellus [3]) of the same molecule?
Its LD50 is 1.6 mg/kg.

And the Ratio (Laodelphax striatellus [4])?
The Ratio was 1.1.

And the Ratio (Laodelphax striatellus [5])?
Its Ratio is 1.7.

How did the IC50 (Acetylcholinesterase [8]) turn out when `CNC(=O)Oc1cccc2ccccc12` [CARBARIL] was run?
The IC50 was 48 nM.

And the IC50 (Acetylcholinesterase [9])?
Its IC50 is 310 nM.

What about the IC50 (Acetylcholinesterase [10]) of the same molecule?
Its IC50 is 48 nM.

For `CC(=O)Oc1cccc2ccccc12`, which Activity [11] is on record?
Its Activity is 27 nmol.

And the Activity [12]?
The Activity was 29 nmol.

What about the Activity [13] of the same molecule?
The Activity was 6.6 nmol.

What about the Ratio [14] of the same molecule?
Its Ratio is 4.1.

What about the Ratio [15] of the same molecule?
The Ratio was 4.3.

For `COP(=O)(OC)Oc1ccc([N+](=O)[O-])c(C)c1` [FENITROXON], which Ratio [6] is on record?
Its Ratio is 1.

What about the Ratio [7] of the same molecule?
The Ratio was 2.1.

And the IC50 (Acetylcholinesterase [8])?
Its IC50 is 360 nM.

And the IC50 (Acetylcholinesterase [9])?
Its IC50 is 730 nM.

What about the IC50 (Acetylcholinesterase [10]) of the same molecule?
The IC50 was 350 nM.

Which results are given for `COP(=S)(OC)Oc1ccc([N+](=O)[O-])c(C)c1` [FENITROTHION]?
LD50 (Laodelphax striatellus [1]): 27 mg/kg; LD50 (Laodelphax striatellus [2]): 38 mg/kg; LD50 (Laodelphax striatellus [3]): 6.4 mg/kg; Ratio (Laodelphax striatellus [4]): 4.2; Ratio (Laodelphax striatellus [5]): 5.9

With `CCOP(=O)(OCC)Oc1cc(C)nc(C(C)C)n1` [DIAZOXON] as the molecule, how does the Ratio [6] read?
Its Ratio is 1.1.

And the Ratio [7]?
The Ratio was 2.4.

And the IC50 (Acetylcholinesterase [8])?
Its IC50 is 190 nM.

And the IC50 (Acetylcholinesterase [9])?
The IC50 was 400 nM.

And the IC50 (Acetylcholinesterase [10])?
Its IC50 is 170 nM.
